“Also recorded” adds a separate entry of the source. Like-named read-outs stand apart in the source and are kept apart here.
How the values were obtained:
EP3 = EP3 activity in isolated smooth muscle preparations; details: read-out: EC50 (nM) EP3
Method: (§1) Activity at different prostanoid receptors was measured in vitro in isolated smooth muscle preparations. FP-activity was measured as contraction of the isolated feline iris sphincter. EP4 -activity was measured as relaxation of smooth muscle of isolated rabbit jugular vein. TP-vasoconstrictor activity was measured as contraction of rings of the isolated rat thoracic aorta.

DP/EP2 = DP/EP2 activity in isolated smooth muscle preparations; details: read-out: EC50 (nM) DP/EP2
Method: as §1

FP receptor = FP receptor (Felis catus, UniProt A0ABI7XJ69); experiment: FP activity, contraction of the isolated feline iris sphincter; details: read-out: EC50 (nM) FP
Sequence of FP receptor (A0ABI7XJ69 1-366): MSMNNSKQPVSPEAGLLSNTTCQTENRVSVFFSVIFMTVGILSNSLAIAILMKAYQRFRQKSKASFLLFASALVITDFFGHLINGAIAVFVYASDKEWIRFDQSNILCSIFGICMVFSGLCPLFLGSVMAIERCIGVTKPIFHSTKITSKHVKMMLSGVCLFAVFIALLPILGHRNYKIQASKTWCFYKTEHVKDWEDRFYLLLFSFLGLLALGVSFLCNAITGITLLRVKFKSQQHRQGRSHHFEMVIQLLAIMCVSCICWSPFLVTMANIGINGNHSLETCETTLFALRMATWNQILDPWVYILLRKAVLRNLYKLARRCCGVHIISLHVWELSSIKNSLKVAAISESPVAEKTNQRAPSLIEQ
Method: as §1

EP4 = EP4 (Oryctolagus cuniculus, UniProt Q28691); details: for IC25: read-out: IC25 EP4
Sequence of EP4 (Q28691 whole entry): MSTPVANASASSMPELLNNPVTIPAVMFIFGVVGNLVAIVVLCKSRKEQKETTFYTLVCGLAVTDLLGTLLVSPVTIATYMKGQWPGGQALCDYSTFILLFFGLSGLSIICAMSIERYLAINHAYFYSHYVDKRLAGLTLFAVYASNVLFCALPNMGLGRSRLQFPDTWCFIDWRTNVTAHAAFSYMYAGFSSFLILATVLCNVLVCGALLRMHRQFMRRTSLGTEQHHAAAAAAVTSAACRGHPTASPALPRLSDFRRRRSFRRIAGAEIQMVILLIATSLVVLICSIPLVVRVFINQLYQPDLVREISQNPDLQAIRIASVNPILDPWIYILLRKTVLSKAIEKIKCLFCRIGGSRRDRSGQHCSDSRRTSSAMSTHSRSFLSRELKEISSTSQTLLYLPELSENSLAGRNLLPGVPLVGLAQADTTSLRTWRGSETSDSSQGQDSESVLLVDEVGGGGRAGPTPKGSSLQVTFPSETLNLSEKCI
Method: as §1

[1] = cited from earlier work; for ocular hypotensive activity: in vivo
[2] = test system: intraocular pressure in the dog; experiment: Dog intraocular pressure by applanation pneumatonometry; type: in vivo; details: 0.1%, 25 μl to ocular surface
Method: The effects of certain of the compounds of the working examples on intraocular pressure are also measured. The compounds of Examples 3 and 7 are prepared at 0.1% w/v concentration in a vehicle comprising 0.1% polysorbate 80 and 10 mM tris (hydroxy methyl) aminomethane hydrochloride (TRIS) base. Dogs are treated by administering 25 μl to the ocular surface, while the contralateral eye receives vehicle as a control. Intraocular pressure is measured by applanation pneumatonometry. Dog intraocular pressure is measured immediately before drug administration and at 2, 4, 6 and 24 hours thereafter. Each of the compounds tested lower intraocular pressure in the dog model.

ocular surface = details: cited from earlier work
EP1 = EP1 activity in isolated smooth muscle preparations; details: read-out: EC50 (nM) EP1
Method: Activity at different prostanoid receptors was measured in vitro in isolated smooth muscle preparations.

TP = target: T1, TP (Rattus norvegicus, UniProt P34978)
T1 sequence (P34978 1-341): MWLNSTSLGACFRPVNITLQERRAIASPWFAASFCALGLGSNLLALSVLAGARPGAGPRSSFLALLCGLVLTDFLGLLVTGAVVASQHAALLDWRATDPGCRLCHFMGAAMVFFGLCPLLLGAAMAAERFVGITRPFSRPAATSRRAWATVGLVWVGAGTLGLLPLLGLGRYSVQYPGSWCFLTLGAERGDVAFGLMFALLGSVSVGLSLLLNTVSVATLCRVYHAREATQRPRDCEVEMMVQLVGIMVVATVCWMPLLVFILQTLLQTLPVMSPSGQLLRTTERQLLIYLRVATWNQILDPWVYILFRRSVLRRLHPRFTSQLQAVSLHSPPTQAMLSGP
Method: as §1

SMILES: COC(=O)CCC/C=C\C[C@@H]1[C@@H](COP(=O)(O)CCc2ccccc2)[C@H](O)C[C@@H]1O
- EC50 (EP3): > 10000 nM
- EC50 (DP/EP2): > 10000 nM
- EC50 (FP receptor): > 10000 nM
- FP/EP4 Ratio (EP4): > 27
- IC25 (EP4): 0.365 µM

SMILES: O=C(O)CCC/C=C\C[C@@H]1[C@@H](COP(=O)(O)CCc2ccccc2)[C@H](O)C[C@@H]1O
- EC50 (FP receptor): > 10000 nM

SMILES: CCOP(=O)(CCc1ccccc1)OC[C@@H]1[C@@H](C/C=C\CCCC(=O)O)[C@@H](O)C[C@H]1O (some centres unmarked)
- EC50 (FP receptor): > 10000 nM
- FP/EP4 Ratio (EP4): > 0.15
- IC25 (EP4): 66.3 µM

SMILES: COP(=O)(CCc1ccccc1)NC[C@@H]1[C@@H](C/C=C\CCCC(=O)O)[C@@H](O)C[C@H]1O (some centres unmarked)
- EC50 (FP receptor): 2140 nM
- FP/EP4 Ratio (EP4): 2.8
- IC25 (EP4): 0.767 µM

SMILES: CCCCC[C@@H](/C=C/[C@@H]1[C@@H](C/C=C\CCCC(=O)O)[C@@H](O)C[C@H]1OC(=O)C(C)(C)C)OC(=O)C(C)(C)C [11,15-dipivaloyl PGF2α]
- ocular hypotensive activity [1]: known to have ocular hypotensive activity

SMILES: COP(=O)(CCc1ccccc1)OC[C@@H]1[C@@H](C/C=C\CCCC(=O)O)[C@@H](O)C[C@H]1O (stereo partly drawn) [Example 3, 7-[3α,5α-Dihydroxy-2-β-[[methoxy(2-phenylethyl)phosphinyl]oxymethyl]cyclopentyl]-5Z-heptenoic acid]
- Decrease in IOP (mm Hg) at 2 HR [2]: -1.1 mm Hg
- Decrease in IOP (mm Hg) at 4 HR [2]: -2.9 mm Hg
- Decrease in IOP (mm Hg) at 6 HR [2]: -3.5 mm Hg
- Decrease in IOP (mm Hg) at 24 HR [2]: 0.4 mm Hg

SMILES: COC(=O)CCC/C=C\C[C@@H]1[C@@H](CNP(=O)(CCc2ccccc2)OC)[C@H](O)C[C@@H]1O (some centres unmarked) [Example 7]
- Decrease in IOP (mm Hg) at 2 HR [2]: -3.3 mm Hg
- Decrease in IOP (mm Hg) at 4 HR [2]: -4.1 mm Hg
- Decrease in IOP (mm Hg) at 6 HR [2]: -5.1 mm Hg
- Decrease in IOP (mm Hg) at 24 HR [2]: -3.5 mm Hg

SMILES: CCCCC[C@H](O)/C=C/[C@H]1[C@H](O)CC(=O)[C@@H]1C/C=C\CCCC(=O)O [PGE2]
- ocular hypotensive activity [1]: possess ocular hypotensive activity; also recorded: highly effective ocular hypotensive agents

SMILES: CCCCC[C@H](O)/C=C/[C@@H]1[C@@H](CCCCCCC(=O)O)[C@@H](O)C[C@H]1O [PGF1α]
- ocular hypotensive activity [1]: highly effective ocular hypotensive agents

SMILES: CCCCC[C@H](O)/C=C/[C@@H]1[C@@H](C/C=C\CCCC(=O)O)[C@@H](O)C[C@H]1O [PGF2α]
- ocular surface side effects (ocular surface; in vivo): ocular surface (conjunctival) hyperemia and foreign-body sensation

SMILES: COP(=O)(CCc1ccccc1)OC[C@@H]1[C@@H](C/C=C\CCCC(=O)O)[C@@H](O)C[C@H]1O (some centres unmarked) [drawing 10]
- EC50 (EP1): 10000 nM
- EC50 (EP3): 575 nM
- EC50 (DP/EP2): > 10000 nM
- EC50 (FP receptor): 195 nM
- EC50 (TP): > 10 µM

SMILES: COC(=O)CCC/C=C\C[C@@H]1[C@@H](CNP(=O)(CCc2ccccc2)OC)[C@H](O)C[C@@H]1O (some centres unmarked) [drawing 14]
- EC50 (EP3): > 10000 nM
- EC50 (FP receptor): 252 nM
- EC50 (TP): > 10 µM

SMILES: CCCCC[C@H](O)/C=C/[C@@H]1[C@@H](C/C=C\CCCC(=O)OC(C)C)[C@@H](O)C[C@H]1O [isopropyl ester of PGF2α]
- hypotensive potency versus the parent compound PGF2α ([1]; attributed to more effective penetration through the cornea): significantly greater hypotensive potency than the parent compound
- ocular hypotensive activity [1]: the most potent ocular hypotensive agent ever reported
- ocular surface side effects (ocular surface; topical ocular use, humans): ocular surface (conjunctival) hyperemia and foreign-body sensation
